Drawing on patent publication US5693650A, “4-(Quinolin-2-yl-methoxy)-phenyl-acetic acid derivatives” (Bayer Aktiengesellschaft, priority 1994, dated 1997), this text covers IC50 for four molecules.

This experiment has as its system ApoB-100-associated lipoproteins. The experiment is described as follows: Inhibition of the release of ApoB-100-associated lipoproteins from liver cells (HepG2), immunoassay for human LDL. Format: cell-based. The conditions noted are these: release of ApoB-100-associated particles into HepG2 culture supernatant, 50% inhibition of light adsorption at 450 nm vs solvent control. As for the experimental part:
The test for detection of the inhibition of the release of ApoB-100-associated lipoproteins from liver cells was carried out in vitro with cultured liver cells, preferably with cells of the human line HepG2. These cells are grown under standard conditions in a medium for culture of eukaryotic cells, preferably in RPMI 1640, with 10% of foetal calf serum. HepG2 cells synthesize and secrete into the culture supernatant ApoB-100-associated lipoprotein particles, which in principle are built up in a similar manner to the VLDL and LDL particles which are to be found in the plasma.
These particles can be detected with an immunoassay for human LDL. This immunoassay is carried out with antibodies which have been induced against human LDL in the rabbit under standard conditions. The anti-LDL antibodies (rab-anti-LDL-ab) were purified by affinity chromatography on an immunosorbent with human LDL. These purified rab-anti-LDL-ab are adsorbed onto the surface of plastic. This adsorption is expediently carried out on the plastic surface of microtiter plates having 96 wells, preferably on MaxiSorp plates (Nunc). If ApoB-100-associated particles are present in the supernatant of HepG2 cells, these can bind to the insolubilized rab-anti-LDL-ab, and an immune complex which is bonded to the plastic surface is formed. Non-bonded proteins are removed by washing. The immune complex on the plastic surface is detected with monoclonal antibodies, which had been induced against human LDL according to standard conditions and purified. These antibodies were conjugated with the enzyme peroxidase (Boehringer, Mannheim). Peroxidase converts the colourless substrate TMB (Kirkegaard and Perry) into a coloured product in the presence of H2 O2. After acidification of the reaction mixture with H2 SO4, the specific light adsorption at 450 nm, which is a measure of the amount of ApoB-100-associated particles which had been secreted into the culture supernatant by the HepG2 cells, is determined.
The IC50 value indicates the concentration of substance at which the light adsorption is inhibited by 50% in comparison with the control (solvent control without substance).
As a reminder, the IC50 is the concentration that inhibits the measured activity by half. The low end stands for inhibition by little substance, the high end for a need for much substance. The molecule `O=C(NC(CO)c1cccc(F)c1)C(c1ccc(OCc2ccc3ccccc3n2)cc1)C1CCCC1` (stereo not shown) [Example 15] came in with an IC50 of 500 nM.
Next, `O=C(NC(CO)c1cccs1)C(c1ccc(OCc2ccc3ccccc3n2)cc1)C1CCCC1` (stereo not shown) [Example 53]: 250 nM; `O=C([C@H](c1ccc(OCc2ccc3ccccc3n2)cc1)C1CCCCCC1)N(CCO)c1ccccc1` [Example 127]: 130 nM.
The molecule `O=C(NCc1ccccc1)[C@H](c1ccc(OCc2ccc3ccccc3n2)cc1)C1CCCCCC1` [Example 141] had a 50% inhibitory concentration (IC50) of 20 nM.
